We go through 11 compounds from ChEMBL document CHEMBL1201862, “PubChem BioAssay data set” (2004).

Test in all cases: NCI tumour cell line growth inhibition, 48 h
The test system of assay [1] is A498.
In assay [2] the test system is CAKI-1.
Assay [3] has as its system CCRF-CEM.
In assay [4] the test system is HCT-116.
Assay [5] deals with Hs-578T.
Assay [6] concerns IGROV-1.
In assay [7] the test system is LOX IMVI.
The subject of assay [8] is MCF7.
Assay [9] relates to MDA-MB-231.
In assay [10] the test system is MDA-MB-435.
For assay [11], the system named is Malme-3M.
Assay [12] deals with OVCAR-4.
The test system of assay [13] is SK-MEL-5.
The subject of assay [14] is SNB-19.
Assay [15] deals with SR.
Assay [16] concerns SW-620.
Assay [17] relates to UO-31.
For assay [18], the system named is DU-145.
Assay [19] has as its system HCC 2998.

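A five-concentration, 48-hour dose response in 96-well plates underlies each endpoint, interpolated linearly between surrounding concentrations. GI50 = concentration required for 50% inhibition of growth.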 Activity calls are given as the source filed them. Cut-off read from the data, not from the text of the source: active = GI50 up to about 1.1 µM and inactive = higher.

As to `O=C(O)c1nc2cc(C(F)(F)F)ccc2nc1Nc1ccc(Cl)c(Cl)c1`, the GI50 in assay [1] was 15.8 µM (inactive); in [2], 28.4 µM (inactive); in assay [3], > 10 µM (inactive); in assay [4] it was 9.23 µM (inactive); in assay [5], 14 µM (inactive); in [6], 18 µM (inactive). Further, the GI50 in assay [7] is 17.3 µM (inactive); in [8], 23.8 µM (inactive); in assay [9], 20.7 µM (inactive); in assay [10] it was 5.12 µM (inactive); in [11], 20.1 µM (inactive); in assay [12] it was 21.2 µM (inactive). In addition, the GI50 in [13] is 17.7 µM (inactive); in [14], 8.95 µM (inactive); in assay [15] it was 21.6 µM (inactive); in [16], 10.8 µM (inactive); in [17], 14.4 µM (inactive).

Consider `Cc1ccccc1-n1c(=O)c2ncn(C3CCCO3)c2n(-c2ccccc2C)c1=S` (centres undefined), for which the GI50 in [1], in assay [2], in [3], in [18], in [19] and in assay [4] was > 100 µM (inactive) in each case. The GI50 in assay [5], in [6], in assay [7], in [8], in assay [9] and in assay [10] was > 100 µM (inactive) throughout. The GI50 in [11] is > 100 µM (inactive); in assay [12], > 10 µM (inactive); in assay [13] it was > 100 µM (inactive); in assay [14], > 100 µM (inactive); in [16], > 100 µM (inactive); in assay [17], > 100 µM (inactive).

Regarding `Cc1cccc(/N=N/c2ccc(/N=N/c3c(O)ccc4ccccc34)cc2C)c1`, the GI50 in [2] was 40.2 µM (inactive); in assay [3], > 100 µM (inactive); in assay [19] it was > 100 µM (inactive); in assay [4] it was > 100 µM (inactive); in [5], 33.9 µM (inactive); in assay [6], > 100 µM (inactive). For the same compound, the GI50 is > 100 µM (inactive) in [8]; > 100 µM (inactive) in assay [9]; > 100 µM (inactive) in assay [10]; 2 µM (inactive) in assay [11]; > 100 µM (inactive) in assay [12]; > 100 µM (inactive) in assay [13]. The GI50 in assay [14] is 38.2 µM (inactive); in assay [15], 21.4 µM (inactive); in assay [16], > 100 µM (inactive); in assay [17] it was > 100 µM (inactive).

Consider `Cc1ccc(N2C(=O)C3c4[nH]c5ccc(C)cc5c4C4CCC(C(C)(C)C)CC4C3C2=O)cc1` (centres undefined), for which the GI50 in [2] is 17.6 µM (inactive); in assay [3], 7.59 µM (inactive); in [18], 17.8 µM (inactive); in assay [4] it was 14.3 µM (inactive); in assay [5] it was 10.4 µM (inactive); in [6], 13.1 µM (inactive). Besides, the GI50 in assay [7] was 15 µM (inactive); in assay [8] it was 11.3 µM (inactive); in assay [9], 10.3 µM (inactive); in [10], 17.7 µM (inactive); in [11] it was 14 µM (inactive); in assay [12] it was 6.27 µM (inactive). Moreover, the GI50 was 32.1 µM (inactive) in [13], 26.5 µM (inactive) in assay [14], 12.1 µM (inactive) in assay [16] and 37.9 µM (inactive) in assay [17].

As to `CCOC(=O)C1=CN2C(=N[C@H]3CCCC[C@@H]32)NC1=O`, the GI50 in assay [1], in assay [2], in [3], in assay [18], in [19] and in [4] was > 100 µM (inactive) in each case. In addition, the GI50 in assay [5], in assay [6], in [7], in assay [8], in assay [9] and in [10] was > 100 µM (inactive) throughout. For the same compound, the GI50 in assay [11], in [12], in [13], in assay [14], in assay [16] and in [17] was > 100 µM (inactive) throughout.

Consider `CCN(CC)CCSc1nc2c(c(=N)n1-c1ccccc1)c(=S)n(-c1ccccc1)c(=S)n2-c1ccccc1`, for which the GI50 in assay [1] is 8.85 µM (inactive); in assay [2], 1.5 µM (inactive); in assay [3] it was 0.0843 µM (active); in assay [18] it was 1.67 µM (inactive); in assay [19], 1.58 µM (inactive); in assay [4], 2.06 µM (inactive). The GI50 in assay [5] is 2.58 µM (inactive); in assay [6], 1.64 µM (inactive); in assay [7], 1.46 µM (inactive); in assay [9], 1.83 µM (inactive); in assay [10], 1.85 µM (inactive); in assay [11], 1.55 µM (inactive). For the same compound, the GI50 is 3.47 µM (inactive) in assay [12]; 3.24 µM (inactive) in assay [13]; 18.3 µM (inactive) in assay [14]; 0.257 µM (active) in [15]; 1.67 µM (inactive) in [16].

On to `O=c1[nH]c2c(c(=O)[nH]1)SC(c1ccccc1)C2` (centres undefined), for which the GI50 in assay [1], in [2], in assay [3], in [18], in assay [19] and in assay [4] was > 100 µM (inactive) each time. In addition, the GI50 in [5] is > 100 µM (inactive); in [6], > 100 µM (inactive); in assay [7], > 100 µM (inactive); in [8], 94 µM (inactive); in assay [9], > 100 µM (inactive); in assay [10], > 100 µM (inactive). Further, the GI50 in [11], in assay [12], in [13], in assay [14], in assay [16] and in assay [17] was > 100 µM (inactive) in each case.

Consider `C=C1C(NC)CCC23CC24CCC2(C)C(C(C)=O)C(O)CC2(C)C4CCC13` (centres undefined), for which the GI50 in assay [1] is > 100 µM (inactive); in [2], > 100 µM (inactive); in assay [3] it was 54.8 µM (inactive); in assay [18] it was > 100 µM (inactive); in assay [19], > 100 µM (inactive); in [4], 70.3 µM (inactive). For the same compound, the GI50 was > 100 µM (inactive) in assay [5]; > 100 µM (inactive) in [6]; 63.7 µM (inactive) in assay [7]; 70.5 µM (inactive) in assay [8]; > 100 µM (inactive) in assay [9]; > 100 µM (inactive) in [10]. For the same compound, the GI50 in [11], in [12], in [13], in assay [14], in assay [16] and in [17] was > 100 µM (inactive) throughout.

Consider `O=C(O)CCC1NC(/C(=C/c2ccccc2O)NC(=O)c2ccccc2)OC1=O` (centres undefined), for which the GI50 in [1] is > 100 µM (inactive); in [2], > 100 µM (inactive); in [3], > 100 µM (inactive); in [18] it was > 100 µM (inactive); in [19], > 100 µM (inactive); in assay [4] it was 67.3 µM (inactive). Further, the GI50 in assay [5] was 43.8 µM (inactive); in [6] it was 30.5 µM (inactive); in assay [7] it was > 100 µM (inactive); in assay [8], 3.39 µM (inactive); in assay [9], 46.9 µM (inactive); in [10], 15.8 µM (inactive). Moreover, the GI50 in [11] was > 100 µM (inactive); in assay [12] it was > 100 µM (inactive); in assay [13], > 100 µM (inactive); in assay [14] it was 32.5 µM (inactive); in assay [16], > 100 µM (inactive); in assay [17], 18 µM (inactive).

As for `O=C([O-])C[n+]1ccccc1.c1ccncc1`, the GI50 in assay [1], in [2], in assay [3], in assay [18], in assay [4] and in assay [5] was > 100 µM (inactive) throughout. For the same compound, the GI50 in [6], in [7], in assay [8], in assay [9], in [10] and in [11] was > 100 µM (inactive) each time. The GI50 in assay [12], in assay [13], in assay [14], in assay [16] and in assay [17] was > 100 µM (inactive) each time.

Take `O=C(O)[C@H]1CCCN1CP(=O)(O)CN1CCC[C@@H]1C(=O)O`: the GI50 in assay [2], in [3], in assay [18], in assay [4], in assay [5] and in assay [6] was > 100 µM (inactive) throughout. Moreover, the GI50 in assay [7], in [8], in assay [9], in assay [10], in [11] and in assay [12] was > 100 µM (inactive) throughout. Moreover, the GI50 in [13], in assay [14], in assay [16] and in assay [17] was > 100 µM (inactive) in each case.
